Test results: patent publication US20190300882A1, “METHODS OF TREATING NEUROBLASTOMA AND REAGENTS THEREFOR” (GARVAN INSTITUTE OF MEDICAL RESEARCH, priority 2016, published 2019)

Columns and labels:
[1] = tested on: SK-N-DZ MYCN-amplified neuroblastoma cell line; test: Secondary validation screen of lethal miRNAs, additional cell line, cell viability; format: cell-based; conditions: miRNA mimic alone
Method: (§1) Each of the cell lines were reverse transfected in 384-well plate format with 25 nM of a miRNA from the Dharmacon miRNA mimic or inhibitor libraries (version 16.0) using liquid-handling robot Calliper Sciclone ALH3000 according to the conditions described in Table 3. After 24 hours, media was changed using BioTek 406, and 144 hours post-transfection, cell viability was determined using CellTiter-Glo luminescent assay (Promega) at 1:2 dilution. Luminescence measurements were taken on the Synergy H4 high-throughput multimode microplate reader. All screens were performed in duplicates.
(§2) The secondary validation screens were performed in accordance with the genome-wide screens described in Example 1 and Example 2, respectively, with the exception that an additional MYCN-amplified neuroblastoma cell line (SK-N-DZ) was added to each screen.
(§3) Furthermore, five additional non-active miRNAs discovered to have no measureable effect across all treatment groups of the genome-wide screen (‘non-lethal’ miRNAs) were included as negative controls.

SHEP cells [2] = test: Secondary validation screen of lethal miRNAs, cell viability; format: cell-based; conditions: miRNA mimic alone
Method: as §1, §2, §3

KELLY cells [3] = test: as above; format: cell-based; conditions: miRNA mimic alone
Method: as §1, §2, §3

KELLY cells [4] = test: Primary functional miRNA mimic screen, CellTiter-Glo cell viability; format: cell-based; conditions: miRNA mimic 25 nM alone, 144 hours post-transfection
Text: Breast cancer cell lines (MDA-MB-231, MDA-MB-468, SK-BR-3; BT474) and prostate cancer cell lines (PC3, DU145) were obtained from American Type Culture Collection (ATCC). Neuroblastoma cell lines (KELLY, SHEP) were received from Children's Cancer Institute (CCIA). The KELLY cells were selected as a MYCN amplified neuroblastoma cell line and the SHEP cells were selected as a MYCN wild-type neuroblastoma cell line. All breast and prostate cancer cell lines were cultivated in RPMI media supplemented with 10% FCS, HEPES, and insulin. […] Each of the cell lines were reverse transfected in 384-well plate format with 25 nM of a miRNA from the Dharmacon miRNA mimic or inhibitor libraries (version 16.0) using liquid-handling robot Calliper Sciclone ALH3000 according to the conditions described in Table 3. […] Luminescence measurements were taken on the Synergy H4 high-throughput multimode microplate reader. All screens were performed in duplicates. Raw viability was normalised to a nontargeting control (OTP) or mock wells, and death genes or controls inducing varying levels of death were used to monitor transfection efficiency and to define dynamic range in each screen (FIG. 1). To define screen hits, normalised viability scores were binned in the following manner: CV1 bin included candidates with viability >=0.8; […] Only LC candidates were defined as screen hits.

SHEP cells [5] = test: as above; format: cell-based; conditions: miRNA mimic 25 nM alone, 144 hours post-transfection
Text: Breast cancer cell lines (MDA-MB-231, MDA-MB-468, SK-BR-3; BT474) and prostate cancer cell lines (PC3, DU145) were obtained from American Type Culture Collection (ATCC). Neuroblastoma cell lines (KELLY, SHEP) were received from Children's Cancer Institute (CCIA). The KELLY cells were selected as a MYCN amplified neuroblastoma cell line and the SHEP cells were selected as a MYCN wild-type neuroblastoma cell line.
All breast and prostate cancer cell lines were cultivated in RPMI media supplemented with 10% FCS, HEPES, and insulin. The neuroblastoma cell lines, KELLY, SHEP, were grown in 10% FCS/RPMI and 10% FCS/DMEM, respectively.
as §1
Raw viability was normalised to a nontargeting control (OTP) or mock wells, and death genes or controls inducing varying levels of death were used to monitor transfection efficiency and to define dynamic range in each screen (FIG. 1). To define screen hits, normalised viability scores were binned in the following manner: CV1 bin included candidates with viability >=0.8; CV2 bin included candidates with viability <0.8 and >0.5, and LC bin was assigned to candidates with normalised viability <=0.5. Only LC candidates were defined as screen hits.

IMR-90 cells = test: Cell toxicity screen of synthetic lethal miRNAs in non-cancer cells; conditions: for cell viability in non-cancer cells, DXR (% of control): IMR-90, miRNA + low dose IC30 doxorubicin; for cell viability in non-cancer cells, VCR (% of control): IMR-90, miRNA + low dose IC30 vincristine; for cell viability in non-cancer cells, Media (% of control): IMR-90, miRNA alone (media); for activity in IMR90 cells: even when administered in combination with a chemotherapeutic agent
Method: The cell toxicity screens were performed in IMR-90 cells (normal human fibroblast cells, ATCC).

KELLY cells [6] = test: Secondary validation screen of synthetic lethal miRNAs with low dose IC30 chemotherapy, cell viability; format: cell-based; conditions: for synthetic lethality with chemotherapy: in both Kelly and SKNDZ MYCN-amplified cells, secondary screen; for Secondary screen Viability (% of control) Kelly DXR: miRNA mimic + low dose IC30 doxorubicin; for Secondary screen Viability (% of control) Kelly VCR: miRNA mimic + low dose IC30 vincristine; for Secondary screen Viability (% of control) Kelly Vehicle: miRNA mimic + vehicle
Method: (§4) KELLY cells were grown in 10% FCS/RPMI as described in Example 1 and reverse transfected in 384-well plate format with 25 nM of a miRNA from the Dharmacon microRNA mimic Library (version 16.0) using liquid-handling robot Calliper Sciclone ALH3000 according to the conditions described in Table 3. After 24 hours, media was changed using a BioTek 406. Media was again changed after 48 hours and 96 hours using a BioTek 406, and at each of those time points low dose IC30 of vincristine or doxorubicin was added to the culture. 144 hours post-transfection, cell viability was determined using CellTiter-Glo luminescent assay (Promega) at 1:2 dilution. Luminescence measurements were taken on the Synergy H4 high-throughput multimode microplate reader as described in Example 1. All screens were performed in duplicates. The experimental design and timeline for this screen are illustrated in FIGS. 5 and 6, respectively.
as §2, §3

[7] = tested on: SK-N-DZ MYCN-amplified neuroblastoma cell line; test: Secondary validation screen of synthetic lethal miRNAs with low dose IC30 chemotherapy, additional cell line; format: cell-based; conditions: for Additional cell line Viability (% of control) SKNDZ DXR: miRNA mimic + low dose IC30 doxorubicin; for Additional cell line Viability (% of control) SKNDZ VCR: miRNA mimic + low dose IC30 vincristine; for Additional cell line Viability (% of control) SKNDZ Vehicle: miRNA mimic + vehicle
Method: as §4, §2, §3

KELLY cells [8] = test: Primary miRNA mimic screen in combination with low dose IC30 of vincristine or doxorubicin, cell viability; format: cell-based; conditions: for Primary screen Viability (% of control) Kelly DXR: miRNA mimic 25 nM + low dose IC30 doxorubicin; for Primary screen Viability (% of control) Kelly VCR: miRNA mimic 25 nM + low dose IC30 vincristine; for Primary screen Viability (% of control) Kelly Vehicle: miRNA mimic 25 nM + vehicle
Method: To systematically identify miRNAs that affect viability and survival of neuroblstoma cells in combination with chemotherapy, a further functional miRNA screen was performed using the 1200 miRNAs from the miRIDIAN miRNA mimic Library (version 16.0; Dharmacon) in combination with low dose IC30 of vincristine or doxorubicin in the two neuroblastoma cancer cell lines. In doing so, the inventors identified miRNAs which result in a lethal phenotype to neuroblastoma cells when administered in combination with low dose IC30 chemotherapy (hereinafter referred to as ‘synthetic lethal’ miRNAs). […] After 24 hours, media was changed using a BioTek 406. […] Luminescence measurements were taken on the Synergy H4 high-throughput multimode microplate reader as described in Example 1. All screens were performed in duplicates.

hsa-miR-892b (guide CACUGGCUCCUUUCUGGGUAGA; chemistry not given here; listed as Homo sapiens)
Additional cell line Viability (% of control) SKNDZ [1]: 54 % of control
Secondary screen Viability (% of control) SHEP (SHEP cells [2]): 34 % of control
Secondary screen Viability (% of control) KELLY (KELLY cells [3]): 3 % of control
Primary screen Viability (% of control) KELLY (KELLY cells [4]): 5 % of control
Primary screen Viability (% of control) SHEP (SHEP cells [5]): 30 % of control

hsa-miR-544a (guide AUUCUGCAUUUUUAGCAAGUUC; chemistry not given here; listed as Homo sapiens)
Additional cell line Viability (% of control) SKNDZ [1]: 59 % of control
Secondary screen Viability (% of control) SHEP (SHEP cells [2]): 61 % of control
Secondary screen Viability (% of control) KELLY (KELLY cells [3]): 17 % of control
Primary screen Viability (% of control) KELLY (KELLY cells [4]): 7 % of control
Primary screen Viability (% of control) SHEP (SHEP cells [5]): 32 % of control

hsa-miR-192-3p (CUGCCAAUUCCAUAGGUCACAG; chemistry not given here; listed as Homo sapiens)
Additional cell line Viability (% of control) SKNDZ [1]: 97 % of control
Secondary screen Viability (% of control) SHEP (SHEP cells [2]): 49 % of control
Secondary screen Viability (% of control) KELLY (KELLY cells [3]): 54 % of control
Primary screen Viability (% of control) KELLY (KELLY cells [4]): 42 % of control
Primary screen Viability (% of control) SHEP (SHEP cells [5]): 43 % of control

hsa-miR-99b-5p (guide CACCCGUAGAACCGACCUUGCG; chemistry not given here; listed as Homo sapiens)
cell viability in non-cancer cells, DXR (% of control) (IMR-90 cells): 72 % of control
cell viability in non-cancer cells, VCR (% of control) (IMR-90 cells): 75 % of control
cell viability in non-cancer cells, Media (% of control) (IMR-90 cells): 87 % of control
activity in IMR90 cells (IMR-90 cells): minimal activity
synthetic lethality with chemotherapy (KELLY cells [6]): substantial synthetic lethality
Secondary screen Viability (% of control) Kelly DXR (KELLY cells [6]): 29 % of control
Secondary screen Viability (% of control) Kelly VCR (KELLY cells [6]): 44 % of control
Secondary screen Viability (% of control) Kelly Vehicle (KELLY cells [6]): 67 % of control
Additional cell line Viability (% of control) SKNDZ DXR [7]: 36 % of control
Additional cell line Viability (% of control) SKNDZ VCR [7]: 61 % of control
Additional cell line Viability (% of control) SKNDZ Vehicle [7]: 93 % of control
Primary screen Viability (% of control) Kelly DXR (KELLY cells [8]): 28 % of control
Primary screen Viability (% of control) Kelly VCR (KELLY cells [8]): 49 % of control
Primary screen Viability (% of control) Kelly Vehicle (KELLY cells [8]): 65 % of control

hsa-miR-485-3p (guide GUCAUACACGGCUCUCCUCUCU; chemistry not given here; listed as Homo sapiens)
cell viability in non-cancer cells, DXR (% of control) (IMR-90 cells): 76 % of control
cell viability in non-cancer cells, VCR (% of control) (IMR-90 cells): 80 % of control
cell viability in non-cancer cells, Media (% of control) (IMR-90 cells): 79 % of control
activity in IMR90 cells (IMR-90 cells): minimal activity
synthetic lethality with chemotherapy (KELLY cells [6]): substantial synthetic lethality
Secondary screen Viability (% of control) Kelly DXR (KELLY cells [6]): 47 % of control
Secondary screen Viability (% of control) Kelly VCR (KELLY cells [6]): 53 % of control
Secondary screen Viability (% of control) Kelly Vehicle (KELLY cells [6]): 85 % of control
Additional cell line Viability (% of control) SKNDZ DXR [7]: 69 % of control
Additional cell line Viability (% of control) SKNDZ VCR [7]: 68 % of control
Additional cell line Viability (% of control) SKNDZ Vehicle [7]: 113 % of control
Primary screen Viability (% of control) Kelly DXR (KELLY cells [8]): 23 % of control
Primary screen Viability (% of control) Kelly VCR (KELLY cells [8]): 52 % of control
Primary screen Viability (% of control) Kelly Vehicle (KELLY cells [8]): 72 % of control

hsa-miR-34a-5p (UGGCAGUGUCUUAGCUGGUUGU; chemistry not given here; listed as Homo sapiens)
cell viability in non-cancer cells, DXR (% of control) (IMR-90 cells): 53 % of control
cell viability in non-cancer cells, VCR (% of control) (IMR-90 cells): 63 % of control
cell viability in non-cancer cells, Media (% of control) (IMR-90 cells): 46 % of control
synthetic lethality with chemotherapy (KELLY cells [6]): substantial synthetic lethality
Secondary screen Viability (% of control) Kelly DXR (KELLY cells [6]): 98 % of control
Secondary screen Viability (% of control) Kelly VCR (KELLY cells [6]): 35 % of control
Secondary screen Viability (% of control) Kelly Vehicle (KELLY cells [6]): 96 % of control
Additional cell line Viability (% of control) SKNDZ DXR [7]: 74 % of control
Additional cell line Viability (% of control) SKNDZ VCR [7]: 57 % of control
Additional cell line Viability (% of control) SKNDZ Vehicle [7]: 92 % of control
Primary screen Viability (% of control) Kelly DXR (KELLY cells [8]): 70 % of control
Primary screen Viability (% of control) Kelly VCR (KELLY cells [8]): 36 % of control
Primary screen Viability (% of control) Kelly Vehicle (KELLY cells [8]): 72 % of control

hsa-miR-380-3p (UAUGUAAUAUGGUCCACAUCUU; chemistry not given here; listed as Homo sapiens)
cell viability in non-cancer cells, DXR (% of control) (IMR-90 cells): 96 % of control
cell viability in non-cancer cells, VCR (% of control) (IMR-90 cells): 117 % of control
cell viability in non-cancer cells, Media (% of control) (IMR-90 cells): 99 % of control
activity in IMR90 cells (IMR-90 cells): minimal activity
synthetic lethality with chemotherapy (KELLY cells [6]): substantial synthetic lethality
Secondary screen Viability (% of control) Kelly DXR (KELLY cells [6]): 38 % of control
Secondary screen Viability (% of control) Kelly VCR (KELLY cells [6]): 76 % of control
Secondary screen Viability (% of control) Kelly Vehicle (KELLY cells [6]): 90 % of control
Additional cell line Viability (% of control) SKNDZ DXR [7]: 30 % of control
Additional cell line Viability (% of control) SKNDZ VCR [7]: 80 % of control
Additional cell line Viability (% of control) SKNDZ Vehicle [7]: 100 % of control
Primary screen Viability (% of control) Kelly DXR (KELLY cells [8]): 20 % of control
Primary screen Viability (% of control) Kelly VCR (KELLY cells [8]): 63 % of control
Primary screen Viability (% of control) Kelly Vehicle (KELLY cells [8]): 94 % of control
